Experimental data: BindingDB's records for doi:10.1021/cb500512z (University of Wisconsin-Milwaukee, 2014)

Target: Genome polyprotein (Hepacivirus C, UniProt A3EZJ3)
Experiment: EMSA
Conditions: pH 7.5; 23 °C
Description: Binding assays containing 25 mM MOPS pH 7.5, 1.25 mM MgCl2, 20 nM Cy5-dT15, and 200 nM NS3h_1b were incubated 5 min at RT. Following addition of indicated concentrations of ebselen, the binding reactions were incubated another 5 min at 23 C.

Sequence of Genome polyprotein (A3EZJ3 whole entry): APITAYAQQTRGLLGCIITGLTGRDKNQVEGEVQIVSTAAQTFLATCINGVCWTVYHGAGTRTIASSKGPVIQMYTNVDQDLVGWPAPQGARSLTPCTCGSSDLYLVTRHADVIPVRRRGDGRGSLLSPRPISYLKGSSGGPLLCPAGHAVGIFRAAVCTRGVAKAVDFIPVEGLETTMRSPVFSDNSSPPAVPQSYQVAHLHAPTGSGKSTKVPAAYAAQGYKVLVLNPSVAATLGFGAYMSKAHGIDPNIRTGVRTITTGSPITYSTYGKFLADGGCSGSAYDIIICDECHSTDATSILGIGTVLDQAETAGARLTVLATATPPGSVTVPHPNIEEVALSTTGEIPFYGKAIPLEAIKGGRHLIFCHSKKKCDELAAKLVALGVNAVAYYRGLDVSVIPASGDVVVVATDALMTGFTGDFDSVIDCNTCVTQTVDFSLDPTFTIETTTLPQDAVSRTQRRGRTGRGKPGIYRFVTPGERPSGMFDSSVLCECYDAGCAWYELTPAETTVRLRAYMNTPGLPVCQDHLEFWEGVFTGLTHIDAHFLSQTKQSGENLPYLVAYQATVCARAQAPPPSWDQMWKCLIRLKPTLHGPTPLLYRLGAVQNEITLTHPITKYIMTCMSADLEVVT

Cc1ccccc1NC(=O)Cn1sc2ccccc2c1=O gave an IC50 of 3.9 µM.
